Assay results reported in patent publication US20230014151A1, “COMBINATION ANTIVIRAL THERAPY FOR MEASLES” (The Trustees of Columbia University in the City of New York, priority 2019, published 2023).
“Also recorded” adds a separate entry of the source. Like-named read-outs stand apart in the source and are kept apart here. Square brackets hold non-standard residues; d marks the D form. Peptide text beside a SMILES is read from it. * marks the point of attachment. Cbz = O=C(OCc1ccccc1)*

What was measured:
[1] = tested on: BG505 (HIV-1 strain); conditions: read-out: IC50 BG505; pseudovirus, TZM-BL cells
[2] = tested on: B41 (HIV-1 strain); conditions: read-out: IC50 B41; pseudovirus, TZM-BL cells
[3] = tested on: 16055 (HIV-1 strain); conditions: read-out: IC50 16055; pseudovirus, TZM-BL cells
[4] = tested on: MN (HIV-1 strain); conditions: read-out: IC50 MN; pseudovirus, TZM-BL cells
[5] = tested on: vesicular stomatitis virus (VSV); conditions: 16 h
[6] = tested on: murine leukemia viruses (MLV); conditions: read-out: IC50 MLV; pseudovirus, TZM-BL cells
[7] = molecular target: viral glycoproteins (H and F); Nectin-4 (Measles virus, UniProt Q786F3); assay: beta-galactosidase complementation-based fusion assay, Nectin-4 target cells
[8] = tested on: MeV “WTFb” strain; assay: in vivo efficacy, intranasal peptides in MeV-infected cotton rats; conditions: intranasal 24 h and 12 h before infection, 5 m/kg dose, 4 days post-infection
Method: FIGS. 84-93 further describe the invention. […] Intranasal administration of MeV-derived peptides protects cotton rats from MV infection. Cotton rats (n=4) were infected intranasally with MeV “WTFb” strain. Treatment was given intranasally 24 h and 12 h before infection in 100 ul (5 m/kg dose of peptides). The animals were euthanized 4 days post-infection.

[9] = tested on: MeV IC323-EGFP-F L454W; assay: organotypic brain cultures (OBC) infected with MeV bearing L454W F; format: cell-based, mice
[10] = tested on: wt MeV; conditions: in vitro, ex vivo; cited from earlier work
[11] = tested on: virus bearing L454W F; assay: lethal infection of suckling mice, intranasal peptide; conditions: intranasal administration
[12] = molecular target: viral glycoproteins (H and F); CD150; assay: beta-galactosidase complementation-based fusion assay, CD150 target cells; conditions: for IC90: read-out: CD150 IC90
[13] = molecular target: T1, soluble MeV F (Measles virus, UniProt Q786F3); format: biochemical; conditions: peptide in culture medium, supernatant 24 hours post transfection
T1 construct: produced in a soluble form, with the ablation of the intracytoplasmic and transmembrane domains; Tobacco Etch Virus protease site (C); foldomer (trimerization) domain (C); 6xHis (C); made in house; host or cells: 293T (culture supernatant)

[14] = tested on: soluble MeV F; format: biochemical, measles virus

Chain of viral glycoproteins (H and F); Nectin-4 (Q786F3 24-112): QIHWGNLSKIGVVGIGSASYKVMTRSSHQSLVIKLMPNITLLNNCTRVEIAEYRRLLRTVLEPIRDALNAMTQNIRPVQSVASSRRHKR
Chain of viral glycoproteins (H and F); CD150 (Q786F3 24-112): as above
Chain of viral glycoproteins (H and F); CD150 (Q786F3 113-550): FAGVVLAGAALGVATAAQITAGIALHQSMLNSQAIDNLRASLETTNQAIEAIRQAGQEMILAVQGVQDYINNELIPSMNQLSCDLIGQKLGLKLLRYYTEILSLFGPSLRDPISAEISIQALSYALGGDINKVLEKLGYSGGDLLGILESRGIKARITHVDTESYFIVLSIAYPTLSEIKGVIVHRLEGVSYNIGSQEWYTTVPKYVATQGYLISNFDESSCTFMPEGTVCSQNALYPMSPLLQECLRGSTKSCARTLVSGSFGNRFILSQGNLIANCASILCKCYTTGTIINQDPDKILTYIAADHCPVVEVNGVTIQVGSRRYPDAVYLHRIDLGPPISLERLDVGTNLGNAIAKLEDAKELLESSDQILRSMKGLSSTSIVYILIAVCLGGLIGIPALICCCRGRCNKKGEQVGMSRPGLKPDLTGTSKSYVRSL
T1 sequence (Q786F3 113-494, added parts left off): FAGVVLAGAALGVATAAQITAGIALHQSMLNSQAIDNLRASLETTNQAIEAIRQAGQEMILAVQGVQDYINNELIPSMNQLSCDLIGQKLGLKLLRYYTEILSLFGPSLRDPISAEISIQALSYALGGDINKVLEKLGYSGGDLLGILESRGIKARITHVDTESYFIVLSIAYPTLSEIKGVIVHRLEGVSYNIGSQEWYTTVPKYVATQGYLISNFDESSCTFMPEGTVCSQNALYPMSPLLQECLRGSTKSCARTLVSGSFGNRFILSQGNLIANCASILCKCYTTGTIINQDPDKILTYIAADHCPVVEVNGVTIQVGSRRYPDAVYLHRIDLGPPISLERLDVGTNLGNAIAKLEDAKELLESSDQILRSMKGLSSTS
T1 sequence (Q786F3 24-112): as the sequence (Q786F3 24-112) above

Q: Which IC50 [1] does the source give for `O=C(CNC(=O)[C@H](Cc1ccccc1)NC(=O)[C@@H](Cc1ccccc1)NC(=O)OCc1ccccc1)NCC(=O)N[C@@H](CO)C(=O)NCC(=O)N[C@@H](CO)C(=O)NCC(=O)N[C@@H](CS)C(=O)O` [FIP, Z-D-FFG-GSGSG-C (SEQ ID NO. 52)] (Cbz-[dF]FGGSGSGC-OH) here?
A: Its IC50 is over 5 µM.

Q: What about the IC50 [2] of the same molecule?
A: The IC50 was over 5 µM.

Q: What about the IC50 [3] of the same molecule?
A: The IC50 was over 5 µM.

Q: What about the IC50 [4] of the same molecule?
A: Its IC50 is over 5 µM.

Q: What about the IC50 [5] of the same molecule?
A: The IC50 was over 5 µM.

Q: What about the IC50 [6] of the same molecule?
A: The IC50 was over 5 µM.

Q: What about the IC90 [7] of the same molecule?
A: The IC90 was over 10000 nM.

Q: And the IC50 ([7]; IC50, Table 2 (salient peptides), Nectin-4 target cells)?
A: The IC50 was 9.72 ± 2.73 µM.

Q: What about the IC50 ([7]; Nectin4 IC50, Table 3 (extended version)) of the same molecule?
A: Its IC50 is 9.72 ± 2.73 µM.

Q: And the IC90 ([7]; read-out: Nectin4 IC90)?
A: The IC90 was over 10000 nM.

Q: With `CC[C@H](C)[C@H](NC(=O)[C@H](C)NC(=O)[C@H](CC(N)=O)NC(=O)CNC(=O)[C@H](CC(C)C)NC(=O)[C@H](CC(N)=O)NC(=O)[C@@H](NC(=O)CNC(=O)[C@@H](NC(=O)[C@H](CC(=O)O)NC(=O)[C@H](CC(C)C)NC(=O)[C@H](CCCNC(=N)N)NC(=O)[C@H](CCC(=O)O)NC(=O)[C@H](CC(C)C)NC(=O)[C@H](CO)NC(=O)[C@@H](NC(=O)[C@@H]1CCCN1C(=O)[C@@H]1CCCN1C(C)=O)[C@@H](C)CC)C(C)C)[C@@H](C)O)C(=O)N[C@@H](C)C(=O)N[C@@H](CCCCN)C(=O)N[C@@H](CC(C)C)C(=O)N[C@@H](CCC(=O)O)C(=O)N[C@@H](CC(=O)O)C(=O)N[C@@H](C)C(=O)N[C@@H](CCCCN)C(=O)N[C@@H](CCC(=O)O)C(=O)N[C@@H](CC(C)C)C(=O)N[C@@H](CC(C)C)C(=O)N[C@@H](CCC(=O)O)C(=O)N[C@@H](CO)C(=O)N[C@@H](CO)C(=O)N[C@@H](CC(=O)O)C(=O)N[C@@H](CCC(N)=O)C(=O)N[C@H](C(=O)N[C@@H](CC(C)C)C(=O)N[C@@H](CCCNC(=N)N)C(=O)NCC(=O)N[C@@H](CO)C(=O)NCC(=O)N[C@@H](CO)C(=O)NCC(=O)N[C@@H](CSC1CC(=O)N(CCCC(=O)NCCOCCOCCOCCOCCC(=O)NCCN(CCNC(=O)CCOCCOCCOCCOCCNC(=O)CCCN2C(=O)CC(SC[C@H](NC(=O)CNC(=O)[C@H](CO)NC(=O)CNC(=O)[C@H](CO)NC(=O)CNC(=O)[C@H](CCCNC(=N)N)NC(=O)[C@H](CC(C)C)NC(=O)[C@@H](NC(=O)[C@H](CCC(N)=O)NC(=O)[C@H](CC(=O)O)NC(=O)[C@H](CO)NC(=O)[C@H](CO)NC(=O)[C@H](CCC(=O)O)NC(=O)[C@H](CC(C)C)NC(=O)[C@H](CC(C)C)NC(=O)[C@H](CCC(=O)O)NC(=O)[C@H](CCCCN)NC(=O)[C@H](C)NC(=O)[C@H](CC(=O)O)NC(=O)[C@H](CCC(=O)O)NC(=O)[C@H](CC(C)C)NC(=O)[C@H](CCCCN)NC(=O)[C@H](C)NC(=O)[C@@H](NC(=O)[C@H](C)NC(=O)[C@H](CC(N)=O)NC(=O)CNC(=O)[C@H](CC(C)C)NC(=O)[C@H](CC(N)=O)NC(=O)[C@@H](NC(=O)CNC(=O)[C@@H](NC(=O)[C@H](CC(=O)O)NC(=O)[C@H](CC(C)C)NC(=O)[C@H](CCCNC(=N)N)NC(=O)[C@H](CCC(=O)O)NC(=O)[C@H](CC(C)C)NC(=O)[C@H](CO)NC(=O)[C@@H](NC(=O)[C@@H]3CCCN3C(=O)[C@@H]3CCCN3C(C)=O)[C@@H](C)CC)C(C)C)[C@@H](C)O)[C@@H](C)CC)[C@@H](C)CC)C(=O)O)C2=O)CCO[C@H]2CC[C@@]3(C)C(=CC[C@H]4[C@@H]5CC[C@H]([C@H](C)CCCC(C)C)[C@@]5(C)CC[C@@H]43)C2)C1=O)C(=O)O)[C@@H](C)CC` (stereo partly shown) [[HRC450-485-peg4]2-chol] as the molecule, how does the “MeV titration of lung homogenates” value [8] read?
A: The value was “reduces the viral titer compared to the untreated animals”.

Q: And the “spread of virus in OBC (fluorescence)” value ([9]; 10 nM)?
A: The value was “only partially inhibitory”.

Q: And the “spread of virus in OBC (fluorescence)” value ([9]; 100 nM)?
A: Its value is “only isolated single infected cells were observed”.

Q: What about the “reduction in the number of MeV N RNA copies” value ([9]; IFNAR1KO OBC, 10 nM, treated post-infection, vs untreated) of the same molecule?
A: Its value is 4 fold.

Q: What about the “reduction of the viral load (MeV N RNA copies, RT-qPCR)” value ([9]; IFNAR1KO OBC, 100 nM, treated post-infection, vs untreated) of the same molecule?
A: Its value is 2 log.

Q: And the “variation of the viral load” value ([9]; IFNAR1KO OBC, concentrations below 10 nM)?
A: The value was “No significant variation of the viral load”.

Q: What about the “dissemination of virus in OBC expressing human CD150 (SLAM)” value ([9]; OBC from IFNAR1KO mice expressing human CD150, highest concentration) of the same molecule?
A: The value was “blocked dissemination of MeV IC323-EGFP-F L454W at least as well as WT virus”.

Q: What about the “spread of virus in OBC (fluorescence)” value ([9]; either 100 nM or 10 nM, four days after infection) of the same molecule?
A: The value was “blocks the spread of MeV-IC323-EGFP-F L454W”.

Q: And the “blocking of wt MeV infection (previous work)” value [10]?
A: The value was “blocks infection with wt MeV in vitro, ex vivo and in vivo in cotton rats and mice”.

Q: And the “protection from lethal infection” value [11]?
A: The value was “protects suckling mice from lethal infection”.

Q: And the IC50 [12]?
A: Its IC50 is 100 ± 65.1 nM.

Q: And the IC90 [12]?
A: Its IC90 is 698 ± 22.3 nM.

Q: And the IC50 [7]?
A: Its IC50 is 0.125 ± 0.175 µM.

Q: And the IC90 [7]?
A: The IC90 was 378 ± 300 nM.

Q: And the IC90 ([7]; read-out: Nectin4 IC90)?
A: Its IC90 is 378 ± 300 nM.

Q: What does the source list for `CC[C@H](C)[C@H](NC(=O)[C@H](C)NC(=O)[C@H](CC(N)=O)NC(=O)CNC(=O)[C@H](CC(C)C)NC(=O)[C@H](CC(N)=O)NC(=O)[C@@H](NC(=O)CNC(=O)[C@@H](NC(=O)[C@H](CC(=O)O)NC(=O)[C@H](CC(C)C)NC(=O)[C@H](CCCNC(=N)N)NC(=O)[C@H](CCC(=O)O)NC(=O)[C@H](CC(C)C)NC(=O)[C@H](CO)NC(=O)[C@@H](NC(=O)[C@@H]1CCCN1C(=O)[C@@H]1CCCN1C(=O)CNC(=O)[C@H](CO)NC(=O)CNC(=O)[C@H](CO)NC(=O)CNC(=O)CNC(=O)[C@H](Cc1ccccc1)NC(=O)[C@@H](Cc1ccccc1)NC(=O)OCc1ccccc1)[C@@H](C)CC)C(C)C)[C@@H](C)O)C(=O)N[C@@H](C)C(=O)N[C@@H](CCCCN)C(=O)N[C@@H](CC(C)C)C(=O)N[C@@H](CCC(=O)O)C(=O)N[C@@H](CC(=O)O)C(=O)N[C@@H](C)C(=O)N[C@@H](CCCCN)C(=O)N[C@@H](CCC(=O)O)C(=O)N[C@@H](CC(C)C)C(=O)N[C@@H](CC(C)C)C(=O)N[C@@H](CCC(=O)O)C(=O)N[C@@H](CO)C(=O)N[C@@H](CO)C(=O)N[C@@H](CC(=O)O)C(=O)N[C@@H](CCC(N)=O)C(=O)N[C@H](C(=O)N[C@@H](CC(C)C)C(=O)N[C@@H](CCCNC(=N)N)C(=O)NCC(=O)N[C@@H](CO)C(=O)NCC(=O)N[C@@H](CO)C(=O)NCC(=O)N[C@@H](CSC1CC(=O)N(CCC(=O)NCCOCCOCCOCCOCCOCCOCCOCCOCCOCCOCCOCCNC(=O)CCN2C(=O)CC(SC[C@H](NC(=O)CNC(=O)[C@H](CO)NC(=O)CNC(=O)[C@H](CO)NC(=O)CNC(=O)[C@H](CCCNC(=N)N)NC(=O)[C@H](CC(C)C)NC(=O)[C@@H](NC(=O)[C@H](CCC(N)=O)NC(=O)[C@H](CC(=O)O)NC(=O)[C@H](CO)NC(=O)[C@H](CO)NC(=O)[C@H](CCC(=O)O)NC(=O)[C@H](CC(C)C)NC(=O)[C@H](CC(C)C)NC(=O)[C@H](CCC(=O)O)NC(=O)[C@H](CCCCN)NC(=O)[C@H](C)NC(=O)[C@H](CC(=O)O)NC(=O)[C@H](CCC(=O)O)NC(=O)[C@H](CC(C)C)NC(=O)[C@H](CCCCN)NC(=O)[C@H](C)NC(=O)[C@@H](NC(=O)[C@H](C)NC(=O)[C@H](CC(N)=O)NC(=O)CNC(=O)[C@H](CC(C)C)NC(=O)[C@H](CC(N)=O)NC(=O)[C@@H](NC(=O)CNC(=O)[C@@H](NC(=O)[C@H](CC(=O)O)NC(=O)[C@H](CC(C)C)NC(=O)[C@H](CCCNC(=N)N)NC(=O)[C@H](CCC(=O)O)NC(=O)[C@H](CC(C)C)NC(=O)[C@H](CO)NC(=O)[C@@H](NC(=O)[C@@H]3CCCN3C(=O)[C@@H]3CCCN3C(=O)CNC(=O)[C@H](CO)NC(=O)CNC(=O)[C@H](CO)NC(=O)CNC(=O)CNC(=O)[C@H](Cc3ccccc3)NC(=O)[C@@H](Cc3ccccc3)NC(=O)OCc3ccccc3)[C@@H](C)CC)C(C)C)[C@@H](C)O)[C@@H](C)CC)[C@@H](C)CC)C(=O)O)C2=O)C1=O)C(=O)O)[C@@H](C)CC` (stereo partly shown) [[FIP-HRC450-485]2-peg11]?
A: stabilization of wt soluble F in pre-fusion state [13]: stabilize the wt soluble F; stabilization of wt soluble F in pre-fusion state ([13]; listed as FIP-HRC-PEG11-dimer): wt F protein remains in its pre-fusion state; stabilization of soluble F by FIP-HRC (dimer without cholesterol), FIGS. 117A-E ([14]; 55° C., 1 mM peptide, compared with FIP commercial, FIP dimer, 3 g): remains in its pre-fusion state incubation at 55 °C for up to two hours; also recorded: wt F is partially stabilized; also recorded: superior to commercially available stabilizer like the commercial FIP and 3 g; stabilization of soluble F proteins on heating ([14]; wt, E455G, E170G E455G soluble F, 45° C. or 55° C. for 30', 1 uM peptide): stabilize all the soluble F protein at both 45 °C and 55 °C; IC50 [12]: 278 ± 229 nM; IC90 [12]: 916 ± 162 nM; IC50 [7]: 0.528 ± 0.635 µM; IC90 [7]: 1180 ± 979 nM; IC90 ([7]; read-out: Nectin4 IC90): 1180 ± 979 nM
